# Columns and labels:
# [1] = system: Escherichia coli K-12 LA290 R55; test: Antibacterial MIC, standard serial dilution; format: cell-based; conditions: nutrient agar, 37° C., 17 hours, as free base
# mice = test: Acute toxicity, intravenous administration in mice; format: in vivo
# [2] = system: Pseudomonas aeruginosa A3; test: Antibacterial MIC, standard serial dilution; format: cell-based; conditions: nutrient agar, 37° C., 17 hours, as free base
# [3] = system: Staphylococcus aureus Smith; test: Antibacterial MIC, standard serial dilution; format: cell-based; conditions: nutrient agar, 37° C., 17 hours, as free base
# Escherichia coli W677 = test: Antibacterial MIC, standard serial dilution; format: cell-based; conditions: nutrient agar, 37° C., 17 hours, as free base
# [4] = system: Pseudomonas aeruginosa No. 12; test: Antibacterial MIC, standard serial dilution; format: cell-based; conditions: nutrient agar, 37° C., 17 hours, as free base
# [5] = system: Klebsiella pneumoniae 22#3038; test: Antibacterial MIC, standard serial dilution; format: cell-based; conditions: nutrient agar, 37° C., 17 hours, as free base
# [6] = system: Bacillus subtilis PCI 219; test: Antibacterial MIC, standard serial dilution; format: cell-based; conditions: nutrient agar, 37° C., 17 hours, as free base
# Providencia sp. Pv16 = test: Antibacterial MIC, standard serial dilution; format: cell-based; conditions: nutrient agar, 37° C., 17 hours, as free base
# [7] = system: Pseudomonas aeruginosa 21-75; test: Antibacterial MIC, standard serial dilution; format: cell-based; conditions: nutrient agar, 37° C., 17 hours, as free base
# [8] = system: Escherichia coli K-12 LA290 R56; test: Antibacterial MIC, standard serial dilution; format: cell-based; conditions: nutrient agar, 37° C., 17 hours, as free base
# [9] = system: Pseudomonas aeruginosa H11; test: Antibacterial MIC, standard serial dilution; format: cell-based; conditions: nutrient agar, 37° C., 17 hours, as free base
# Serratia sp. SOU = test: Antibacterial MIC, standard serial dilution; format: cell-based; conditions: nutrient agar, 37° C., 17 hours, as free base
# [10] = system: Pseudomonas aeruginosa K-Ps 102; test: Antibacterial MIC, standard serial dilution; format: cell-based; conditions: nutrient agar, 37° C., 17 hours, as free base
# [11] = system: Staphylococcus aureus FDA 209P; test: Antibacterial MIC, standard serial dilution; format: cell-based; conditions: nutrient agar, 37° C., 17 hours, as free base
# [12] = system: Escherichia coli K-12 ML1630; test: Antibacterial MIC, standard serial dilution; format: cell-based; conditions: nutrient agar, 37° C., 17 hours, as free base
# Proteus rettgeri GN311 = test: Antibacterial MIC, standard serial dilution; format: cell-based; conditions: nutrient agar, 37° C., 17 hours, as free base
# [13] = system: Escherichia coli K-12 ML1410 R81; test: Antibacterial MIC, standard serial dilution; format: cell-based; conditions: nutrient agar, 37° C., 17 hours, as free base
# [14] = system: Pseudomonas aeruginosa GN315; test: Antibacterial MIC, standard serial dilution; format: cell-based; conditions: nutrient agar, 37° C., 17 hours, as free base
# Providencia sp. 2991 = test: Antibacterial MIC, standard serial dilution; format: cell-based; conditions: nutrient agar, 37° C., 17 hours, as free base
# Salmonella typhi T-63 = test: Antibacterial MIC, standard serial dilution; format: cell-based; conditions: nutrient agar, 37° C., 17 hours, as free base
# [15] = system: Escherichia coli JR66/W677; test: Antibacterial MIC, standard serial dilution; format: cell-based; conditions: nutrient agar, 37° C., 17 hours, as free base
# Sarcina lutea PCI 1001 = test: Antibacterial MIC, standard serial dilution; format: cell-based; conditions: nutrient agar, 37° C., 17 hours, as free base
# Escherichia coli JR225 = test: Antibacterial MIC, standard serial dilution; format: cell-based; conditions: nutrient agar, 37° C., 17 hours, as free base
# Proteus vulgaris 0X19 = test: Antibacterial MIC, standard serial dilution; format: cell-based; conditions: nutrient agar, 37° C., 17 hours, as free base
# [16] = system: Escherichia coli K-12 R388; test: Antibacterial MIC, standard serial dilution; format: cell-based; conditions: nutrient agar, 37° C., 17 hours, as free base
# [17] = system: Corynebacterium bovis 1810; test: Antibacterial MIC, standard serial dilution; format: cell-based; conditions: nutrient agar, 37° C., 17 hours, as free base
# [18] = system: Pseudomonas maltophilia GN 907; test: Antibacterial MIC, standard serial dilution; format: cell-based; conditions: nutrient agar, 37° C., 17 hours, as free base
# [19] = system: Bacillus cereus ATCC 10702; test: Antibacterial MIC, standard serial dilution; format: cell-based; conditions: nutrient agar, 37° C., 17 hours, as free base
# [20] = system: Klebsiella pneumoniae PCI602; test: Antibacterial MIC, standard serial dilution; format: cell-based; conditions: nutrient agar, 37° C., 17 hours, as free base
# Escherichia coli NIHJ = test: Antibacterial MIC, standard serial dilution; format: cell-based; conditions: nutrient agar, 37° C., 17 hours, as free base
# Escherichia coli K-12 = test: Antibacterial MIC, standard serial dilution; format: cell-based; conditions: nutrient agar, 37° C., 17 hours, as free base
# [21] = system: Shigella dysenteriae JS11910; test: Antibacterial MIC, standard serial dilution; format: cell-based; conditions: nutrient agar, 37° C., 17 hours, as free base
# [22] = system: Micrococcus flavus FDA 16; test: Antibacterial MIC, standard serial dilution; format: cell-based; conditions: nutrient agar, 37° C., 17 hours, as free base
# [23] = system: Staphylococcus aureus Ap01; test: Antibacterial MIC, standard serial dilution; format: cell-based; conditions: nutrient agar, 37° C., 17 hours, as free base
# [24] = system: Pseudomonas aeruginosa 99; test: Antibacterial MIC, standard serial dilution; format: cell-based; conditions: nutrient agar, 37° C., 17 hours, as free base
# [25] = system: Escherichia coli K-12 ML1629; test: Antibacterial MIC, standard serial dilution; format: cell-based; conditions: nutrient agar, 37° C., 17 hours, as free base
# [26] = system: Escherichia coli K-12 J5R11-2; test: Antibacterial MIC, standard serial dilution; format: cell-based; conditions: nutrient agar, 37° C., 17 hours, as free base
# Proteus rettgeri GN466 = test: Antibacterial MIC, standard serial dilution; format: cell-based; conditions: nutrient agar, 37° C., 17 hours, as free base
# Bacillus anthracis = format: cell-based; conditions: nutrient agar, 37° C., 17 hours, as free base
# [27] = system: Escherichia coli K-12 LA290 R64; test: Antibacterial MIC, standard serial dilution; format: cell-based; conditions: nutrient agar, 37° C., 17 hours, as free base
# [28] = system: Bacillus subtilis NRRL B-558; test: Antibacterial MIC, standard serial dilution; format: cell-based; conditions: nutrient agar, 37° C., 17 hours, as free base
# [29] = system: Pseudomonas aeruginosa TI-13; test: Antibacterial MIC, standard serial dilution; format: cell-based; conditions: nutrient agar, 37° C., 17 hours, as free base
# [30] = system: Mycobacterium smegmatis ATCC 607; test: Antibacterial MIC, standard serial dilution; format: cell-based; conditions: nutrient agar, 37° C., 17 hours, as free base
# [31] = system: Staphylococcus epidermidis 109; test: Antibacterial MIC, standard serial dilution; format: cell-based; conditions: nutrient agar, 37° C., 17 hours, as free base
# [32] = system: Pseudomonas aeruginosa H9; test: Antibacterial MIC, standard serial dilution; format: cell-based; conditions: nutrient agar, 37° C., 17 hours, as free base
# [33] = system: Escherichia coli K-12 C600 R135; test: Antibacterial MIC, standard serial dilution; format: cell-based; conditions: nutrient agar, 37° C., 17 hours, as free base
# [34] = system: Salmonella enteritidis 1891; test: Antibacterial MIC, standard serial dilution; format: cell-based; conditions: nutrient agar, 37° C., 17 hours, as free base
# Escherichia coli K-12 R5 = test: Antibacterial MIC, standard serial dilution; format: cell-based; conditions: nutrient agar, 37° C., 17 hours, as free base
# [35] = system: Escherichia coli K-12 ML1410; test: Antibacterial MIC, standard serial dilution; format: cell-based; conditions: nutrient agar, 37° C., 17 hours, as free base
# Serratia sp. 4 = test: Antibacterial MIC, standard serial dilution; format: cell-based; conditions: nutrient agar, 37° C., 17 hours, as free base
# [36] = system: Pseudomonas aeruginosa B-13; test: Antibacterial MIC, standard serial dilution; format: cell-based; conditions: nutrient agar, 37° C., 17 hours, as free base
# [37] = system: Pseudomonas aeruginosa PST1; test: Antibacterial MIC, standard serial dilution; format: cell-based; conditions: nutrient agar, 37° C., 17 hours, as free base
# [38] = system: Pseudomonas aeruginosa ROS 134/PU21; test: Antibacterial MIC, standard serial dilution; format: cell-based; conditions: nutrient agar, 37° C., 17 hours, as free base
# Serratia marcescens = test: Antibacterial MIC, standard serial dilution; format: cell-based; conditions: nutrient agar, 37° C., 17 hours, as free base
compound,measurement,setting,value
"CNCC1CCC(N)C(OC2C(N)CCC(N(C)C(=O)CNC=N)C2O)O1.O.O.O.O.O=S(=O)(O)O.O=S(=O)(O)O (centres unmarked) [DBF, 3-demethoxy-2""-N-formimidoylistamycin B]",MIC,[1],0.78 µg/mL
same,acute toxicity,"mice; mice, intravenous, in words",low toxicity
same,tolerated dose (all treated mice),"mice; mouse, in vivo, iv, 336 h",100 mg/kg
same,MIC,[2],0.39 µg/mL
same,MIC,[3],< 0.20 µg/mL
same,MIC,Escherichia coli W677,0.39 µg/mL
same,MIC,[4],25 µg/mL
same,MIC,[5],1.56 µg/mL
same,MIC,[6],0.20 µg/mL
same,MIC,Providencia sp. Pv16,0.78 µg/mL
same,MIC,[7],50 µg/mL
same,MIC,[8],0.39 µg/mL
same,MIC,[9],50 µg/mL
same,MIC,Serratia sp. SOU,12.5 µg/mL
same,MIC,[10],25 µg/mL
same,MIC,[11],0.39 µg/mL
same,MIC,[12],1.56 µg/mL
same,MIC,Proteus rettgeri GN311,0.39 µg/mL
same,MIC,[13],0.39 µg/mL
same,MIC,[14],50 µg/mL
same,MIC,Providencia sp. 2991,1.56 µg/mL
same,MIC,Salmonella typhi T-63,0.39 µg/mL
same,MIC,[15],0.39 µg/mL
same,MIC,Sarcina lutea PCI 1001,0.39 µg/mL
same,MIC,Escherichia coli JR225,0.39 µg/mL
same,MIC,Proteus vulgaris 0X19,< 0.20 µg/mL
same,MIC,[16],0.39 µg/mL
same,MIC,[17],< 0.20 µg/mL
same,MIC,[18],> 100 µg/mL
same,MIC,[19],1.56 µg/mL
same,MIC,[20],0.78 µg/mL
same,MIC,Escherichia coli NIHJ,0.20 µg/mL
same,MIC,Escherichia coli K-12,0.39 µg/mL
same,MIC,[21],1.56 µg/mL
same,MIC,[22],0.39 µg/mL
same,MIC,[23],0.39 µg/mL
same,MIC,[24],> 100 µg/mL
same,MIC,[25],0.39 µg/mL
same,MIC,[26],0.78 µg/mL
same,MIC,Proteus rettgeri GN466,< 0.20 µg/mL
same,MIC,Bacillus anthracis,0.39 µg/mL
same,MIC,[27],0.78 µg/mL
same,MIC,[28],< 0.20 µg/mL
same,MIC,[29],12.5 µg/mL
same,MIC,[30],0.39 µg/mL
same,MIC,[31],0.20 µg/mL
same,MIC,[32],25 µg/mL
same,MIC,[33],6.25 µg/mL
same,MIC,[34],1.56 µg/mL
same,MIC,Escherichia coli K-12 R5,0.78 µg/mL
same,MIC,[35],1.56 µg/mL
same,MIC,Serratia sp. 4,12.5 µg/mL
same,MIC,[36],> 100 µg/mL
same,MIC,[37],25 µg/mL
same,MIC,[38],100 µg/mL
same,MIC,Serratia marcescens,0.78 µg/mL
